Measurements published in patent US7687079B2, “Methods of treating ileus” (priority 2002, dated 2010).
“Also recorded” adds a separate entry of the source.

How the values were obtained:
[1] = tested on: serum IL-6; assay: serum IL-6 ELISA after SITx; format: in vivo, rat
Experimental: Serum samples were taken sequentially at 1, 4 and 24 hours after reperfusion and stored at −80° C. until evaluation. Serum cytokine concentrations, including IL-6, IL-10 and TNFα, were determined using rat enzyme-linked immunoassay (ELISA) kits as described by the manufacturer (R & D, Cambridge, Mass.).
FIG. 6 is a set of bar graphs that illustrate the effect of CO on serum IL-6 and nitrate/nitrite concentrations in animals receiving intestinal grafts at one and four hours after reperfusion. […] Serum IL-6 concentrations were determined using a rat enzyme-linked immunoassay (ELISA) kit (R&D, Cambridge, Mass.). The serum nitrite/nitrate levels, the stable end products of NO metabolism, were measured using a commercially available test kit (Cayman, Ann Arbor, Mich.). In this assay system, nitrate is reduced to nitrite using nitrate reductase, and nitrite concentration of the sample was subsequently measured using the Griess reaction. Serum IL-6 and nitrite/nitrate levels in animals subjected SITx and treated with air increased over time.

[2] = tested on: IL-6, IL-1β, TNFα, ICAM-1, COX-2, iNOS, IL-10 mRNA; assay: real time RT-PCR of inflammatory mediators, CO alone without surgery; format: in vivo, rat; conditions: inhalation of CO alone (no surgery)
Experimental: (§1) The effects of inhalation of CO on transplant-induced pro-inflammatory and anti-inflammatory gene expression was assessed in muscularis extracts by RT-PCR. Muscularis extemae was collected from normal intestine and transplanted grafts 4 hours postoperatively and snap frozen in liquid nitrogen. This time point falls within the range of maximum inflammatory mediator expression that occurs between 3 and 6 hours following abdominal incision. Total RNA extraction was performed using the guanidium-thiocyanate phenol-chloroform extraction method as described previously (Eskandari et al., Am. J. Clin. Pathol. 75(3):367-370 (1997)). RNA pellets were resuspended in RNA-secure resuspension solution (Ambion Inc., Austin, Tex.), followed by removal of potentially contaminating DNA by treatment with DNase I (DNA-Free Kit, Ambion Inc., Austin, Tex.). Equal aliquots (5 μg) of total RNA from each sample were quantified by spectrophotometry (wavelength […]) and aliquoted at a concentration of 40 ng/μl. Peak mRNA expression was quantified in duplicate by SYBR Green two-step, real-time RT-PCR. […] Real-time PCR data were plotted as the ΔRn, fluorescence signal versus the cycle number. […] Quantification of mRNA expression was normalized to GAPDH and calculated relative to control using the comparative CT method (Schmittgen et al., J. Biochem. Biophys. Methods 46(1-2):69-8 (2000)). […]

[3] = tested on: TNFα mRNA; assay: TNFα mRNA expression in muscularis externae of intestinal grafts (real time RT-PCR); format: in vivo, rat; conditions: SITx recipients treated with CO, 4 hours after reperfusion
Experimental: as §1

[4] = tested on: HO-1 mRNA; assay: HO-1 mRNA in muscularis after IM (real time RT-PCR); format: in vivo, mouse
Experimental: Pro- and anti-inflammatory gene expression was determined by real time RT-PCR. The small intestinal muscularis externa was collected at 4 time points (3, 6, 12, and 24 hr) postoperatively and snap frozen in liquid nitrogen. Total RNA extraction was performed using the guanidium-thiocyanate phenol-chloroform extraction method as described in Eskandari et al. (Id.) RNA pellets were resuspended in RNA-secure resuspension solution (Ambion Inc., Austin, Tex.), followed by removal of potential contaminating DNA by treatment with DNase I (DNA-Free Kit, Ambion Inc., Austin, Tex.). Equal aliquots (5 μg) of total RNA from each sample were quantified by spectrophotometry (wavelength […]). Peak mRNA expression was quantified in duplicate by SYBR Green two-step, real-time RT-PCR. β-actin was used as the endogenous reference. Aliquoted RNA (40 ng) was subjected to first-strand complementary DNA (cDNA) synthesis using random hexamers (PE applied Biosystems, Foster City, Calif.) and Super Script II (Life Technologies, Rockville, Md.). Primers were taken from the literature or designed according to published sequences (Table 3). PCR reaction mixture was prepared using SYBR Green PCR Core Reagents (PE Applied Biosystems). Each sample was estimated in duplicate using the conditions recommended by the manufacturer. Real-time PCR data were plotted as the ΔRn fluorescence signal versus the cycle number. An arbitrary threshold was set to the midlinear portion of the log ΔRn cycle plot. The threshold cycle (CT) is defined as the cycle number at which the ΔRn, crosses this threshold. Quantification of mRNA expression was normalized to β-actin and calculated relative to control using the comparative CT method.
To exclude PCR amplification of contaminating genomic DNA, RT-negative controls (samples containing RNA which was not reverse transcribed) were included in each PCR reaction. Melting curve analyses were performed for each reaction to ensure amplification of specific product. […] PCR amplification efficiency of each target cDNA was measured by determining the colinearity of serial dilutions. […]

[C-]#[O+] [CO, carbon monoxide]
serum IL-6 level ([1]; SITx + CO vs SITx with air): significantly decreased; also recorded: significantly lower
Serum IL-6 ([1]; SITx + CO, 4 hours after reperfusion, Table 2): 1439 pg/mL
expression of any of the mediators studied [2]: no effect
TNFα expression [3]: unchanged
HO-1 mRNA expression ([4]; IM + CO vs IM, 3 hr but not 6 hr postoperatively): significantly increased
HO-1 gene expression, increase over manipulation alone ([4]; IM + CO vs IM, 3 hr postoperatively): 300%
HO-1 gene expression ([4]; unoperated control mice, CO alone, 6 hr time point): small, though significant, increase; also recorded: increased
